Patent EP0527889B1, “QUINOLIZINONE TYPE COMPOUNDS” (priority 1990, dated 1991)
≈ marks a conversion by molar mass, not a printed value. Where a name gives a salt, the structure may show the parent alone.

Key:
Assay in all cases: In vitro antibacterial activity, MIC by agar dilution
Type in all cases: cell-based
Conditions in all cases: BHI agar, 35-37°C, 20-24 hours, unit assumed
[1] = tested on: Acinetobacter calcoaceticus CMX 669
Description: (§1) Each plate was inoculated with 1:100 (or 1:10 for slow growing strains, primarily Micrococcus and Streptococcus) dilutions of up to 32 different microorganisms, using a Steers replicator block calibrated to deliver approximately 10^4 colony forming units (CFUs). The inoculated plates were incubated at from about 35°C to about 37°C for approximately 20-24 hours. In addition, a control plate using BHI agar containing no test compound was prepared and incubated at the beginning and at the end of each test. Ciprofloxacin was used as the control antibiotic.
(§2) The MIC was defined as the lowest concentration of test compound yielding no growth (a slight haze or sparsely isolated colonies at the inoculum spot) as compared to the growth control containing no test compound.

[2] = tested on: Enterobacter aerogenes ATCC 13048
Description: as §1, §2

[3] = tested on: Enterococcus faecium ATCC 8043
Description: as §1, §2

[4] = tested on: Escherichia coli DC-2
Description: as §1, §2

[5] = tested on: Escherichia coli JUHL
Description: as §1, §2

[6] = tested on: Escherichia coli KNK 437
Description: as §1, §2

[7] = tested on: Escherichia coli SS
Description: as §1, §2

[8] = tested on: Klebsiella pneumoniae ATCC 8045
Description: as §1, §2

[9] = tested on: Micrococcus luteus ATCC 4698
Description: as §1, §2

[10] = tested on: Micrococcus luteus ATCC 9341
Description: as §1, §2

[11] = tested on: Providencia stuartii CMX 640
Description: as §1, §2

[12] = tested on: Pseudomonas aeruginosa A5007
Description: as §1, §2

[13] = tested on: Pseudomonas aeruginosa BMH10
Description: as §1, §2

[14] = tested on: Pseudomonas aeruginosa K799/61
Description: as §1, §2

[15] = tested on: Pseudomonas aeruginosa K799/WT
Description: as §1, §2

[16] = tested on: Pseudomonas cepacia 296I
Description: as §1, §2

[17] = tested on: Staphylococcus aureus A5177
Description: as §1, §2

[18] = tested on: Staphylococcus aureus ATCC 6538P
Description: as §1, §2

[19] = tested on: Staphylococcus aureus CMX 553
Description: as §1, §2

[20] = tested on: Staphylococcus epidermidis 3519
Description: as §1, §2

[21] = tested on: Streptococcus agalactaciae CMX 508
Description: as §1, §2

[22] = tested on: Streptococcus bovis A5169
Description: as §1, §2

[23] = tested on: Streptococcus pyrogenes 2548 INDUC
Description: as §1, §2

[24] = tested on: Streptococcus pyrogenes CONST
Description: as §1, §2

[25] = tested on: Streptococcus pyrogenes EES61
Description: as §1, §2

[26] = tested on: Pseudomonas aeruginosa 2862
Description: as §1, §2

[27] = tested on: Staphylococcus aureus 1775
Description: as §1, §2

[28] = tested on: Staphylococcus aureus 642A
Description: as §1, §2

[29] = tested on: Staphylococcus aureus A-5278
Description: as §1, §2

[30] = tested on: Staphylococcus aureus NCTC 10649
Description: as §1, §2

[31] = tested on: Escherichia coli H560
Description: as §1, §2

Compound | MIC values [1] | MIC values [2] | MIC values [3] | MIC values [4] | MIC values [5] | MIC values [6] | MIC values [7] | MIC values [8] | MIC values [9] | MIC values [10] | MIC values [11] | MIC values [12] | MIC values [13] | MIC values [14] | MIC values [15] | MIC values [16] | MIC values [17] | MIC values [20] | MIC values [22] | MIC values [23] | further results
CCc1cc(C(=O)O)c(=O)n2ccc(N3CCN(C)CC3)cc12.Cl [Example 65, 1-Ethyl-8-(4-methylpiperazin-1-yl)-4H-quinolizin-4-one-3-carboxylic acid hydrochloride] | 25 µg/mL | 12.5 µg/mL | 50 µg/mL | > 100 µg/mL | 12.5 µg/mL | 100 µg/mL | 1.56 µg/mL | 6.2 µg/mL | 25 µg/mL | 25 µg/mL | > 100 µg/mL | 25 µg/mL | 25 µg/mL | 25 µg/mL | 25 µg/mL | 100 µg/mL | 25 µg/mL | 25 µg/mL | 100 µg/mL | 50 µg/mL | MIC values [18]: 12.5 µg/mL; MIC values [19]: 50 µg/mL; MIC values [21]: 100 µg/mL; MIC values [24]: 50 µg/mL; MIC values [25]: 100 µg/mL
NC1CCN(c2nc3c(C4CC4)cc(C(=O)O)c(=O)n3cc2F)C1 (stereo not drawn) [Example 158, 2-(3-Aminopyrrolidin-1-yl)-9-cyclopropyl-3-fluoro-6H-6-oxo-pyrido[1,2-a]pyrimidine-7-carboxylic acid] |  | 0.1 µg/mL (≈ 0.301 µM) |  |  | 0.02 µg/mL (≈ 0.0602 µM) |  | 0.01 µg/mL (≈ 0.0301 µM) | 0.05 µg/mL (≈ 0.15 µM) |  |  | 3.1 µg/mL (≈ 9.33 µM) | 0.2 µg/mL (≈ 0.602 µM) |  |  |  |  |  | 0.39 µg/mL (≈ 1.17 µM) | 6.2 µg/mL (≈ 18.7 µM) | 0.78 µg/mL (≈ 2.35 µM) | MIC values [26]: 50 µg/mL (≈ 150 µM); MIC values [27]: 100 µg/mL (≈ 301 µM); MIC values [28]: 0.2 µg/mL (≈ 0.602 µM); MIC values [29]: 0.78 µg/mL (≈ 2.35 µM)
NC1CCN(c2nc3c(-c4ccc(F)cc4F)cc(C(=O)O)c(=O)n3cc2F)C1 (stereo not drawn) [Example 162, 2-(3-Aminopyrrolidin-1-yl)-9-(2,4-difluorophenyl)-3-fluoro-6H-6-oxopyrido[1,2-a]pyrimidine-7-carboxylic acid trifluoroacetic acid salt] |  |  |  |  |  |  |  |  |  |  |  |  |  |  |  |  |  |  |  |  | MIC values ([1]; trifluoroacetic acid salt): 0.1 µg/mL; MIC values ([4]; trifluoroacetic acid salt): 0.39 µg/mL; MIC values ([6]; trifluoroacetic acid salt): 0.39 µg/mL; MIC values ([8]; trifluoroacetic acid salt): 0.02 µg/mL; MIC values ([10]; trifluoroacetic acid salt): 6.2 µg/mL; MIC values ([12]; trifluoroacetic acid salt): 0.39 µg/mL; MIC values ([15]; trifluoroacetic acid salt): 0.39 µg/mL; MIC values ([16]; trifluoroacetic acid salt): 6.2 µg/mL; MIC values ([27]; trifluoroacetic acid salt): > 100 µg/mL; MIC values ([28]; trifluoroacetic acid salt): 0.2 µg/mL; MIC values ([18]; trifluoroacetic acid salt): 0.1 µg/mL; MIC values ([19]; trifluoroacetic acid salt): 0.2 µg/mL; MIC values ([30]; trifluoroacetic acid salt): 0.1 µg/mL; MIC values ([20]; trifluoroacetic acid salt): 0.2 µg/mL; MIC values ([21]; trifluoroacetic acid salt): 0.78 µg/mL; MIC values ([23]; trifluoroacetic acid salt): 0.2 µg/mL
O=C(O)c1cc(C2CC2)c2nc(N3CCOCC3)c(F)cn2c1=O [Example 165, 9-Cyclopropyl-3-fluoro-2-(morpholin-1-yl)-6H-6-oxo-pyrido[1,2-a]pyrimidine-7-carboxylic acid] | 6.2 µg/mL (≈ 18.6 µM) | 3.1 µg/mL (≈ 9.3 µM) | > 100 µg/mL | > 100 µg/mL | 3.1 µg/mL (≈ 9.3 µM) | > 100 µg/mL | 0.2 µg/mL (≈ 0.6 µM) | 0.39 µg/mL (≈ 1.17 µM) | > 100 µg/mL | > 100 µg/mL | > 100 µg/mL | 25 µg/mL (≈ 75 µM) | 50 µg/mL (≈ 150 µM) | 3.1 µg/mL (≈ 9.3 µM) | 25 µg/mL (≈ 75 µM) | 25 µg/mL (≈ 75 µM) | 6.2 µg/mL (≈ 18.6 µM) | 6.2 µg/mL (≈ 18.6 µM) | > 100 µg/mL | > 100 µg/mL | MIC values [31]: 3.1 µg/mL (≈ 9.3 µM); MIC values [27]: > 100 µg/mL; MIC values [28]: 6.2 µg/mL (≈ 18.6 µM); MIC values [29]: 6.2 µg/mL (≈ 18.6 µM); MIC values [18]: 6.2 µg/mL (≈ 18.6 µM); MIC values [19]: 6.2 µg/mL (≈ 18.6 µM); MIC values [30]: 6.2 µg/mL (≈ 18.6 µM); MIC values [21]: > 100 µg/mL; MIC values [24]: > 100 µg/mL; MIC values [25]: > 100 µg/mL
